Like-named read-outs stand apart in the source and are kept apart here.
Tests used:
[1] = test system: HeLa (cervix cancer) cells; assay: In vitro cytotoxicity, crystal violet assay, HeLa; assay type: cell-based, human
Protocol: (§1) The synthesized compounds were tested and evaluated for their cytotoxicity using an in vitro cytotoxicity assay. We studied five cancer cell lines and one non-cancerous cell line. The cells were purchased from the American Type Culture Collection (ATCC), United States, including HeLa (cervical), LoVo (colorectal), MCF-7 (breast), SKOV3 (ovarian), B16F10 (murine melanoma), and HaCaT (human keratinocyte). Dulbecco’s modified Eagle’s medium (containing 10% FBS) was used to culture HeLa, MCF-7, B16F10, and HaCaT cells, while RPMI 1640 medium (containing 10% FBS) was used for SKOV3 and LoVo cells. The cells were cultured in 25 cm^2 culture flasks (Corning, Corning, NY, USA) in a humidified atmosphere of 5% CO2 at 37 °C and passaged every three days with standard Trypsin-EDTA solution (Gibco, Thermo Fisher Scientific, Waltham, MA, USA). All compounds were initially prepared as stock solutions at a concentration of 10 mM (in DMSO). Serial dilutions were performed in the indicated medium to achieve the required concentration gradient of compounds (20 µM, 10 µM, 5 µM, 2.5 µM, 1.25 µM, 0.625 µM, 0.312 µM). The maximum percentage of DMSO used in the compound solutions was 0.1%, based on the procedure previously described by our group.
(§2) This assay was performed in reference to the method already described. In brief, the cell lines (HeLa, MCF-7, and SKOV-3) were seeded in the indicated medium in a 96-well culture plate (Nest Biotechnology, Wuxi, China) at a density of 1 × 10^4 cells per well (100 µL) in quadruplicates and then incubated at 37 °C in a 5% CO2 atmosphere. After 24 h of incubation, 100 µL aliquots of the compounds in medium at increasing concentrations were added to each well, and the cells were further incubated for 48 h. After the incubation period, the cells were washed with PBS twice, and then with 70% ethanol, followed by staining with 0.05% crystal violet solution in water (ChemPur, Piekary Slaskie, Poland) for 20 min. The excess crystal violet was washed out with distilled water several times. The stained cells then solubilized in 1% Triton™ X-100 Surfact-Amps (POCH SA, Gliwice, Poland) or 10% PBS. The absorbance of each well was measured using Fluostar plate reader at […].
(§3) Data analysis was carried out using GraphPad Prism 5.0.3. Calculations were performed using MS-Excel version 2021. The cytotoxic effect was expressed as the relative viability of treated cells (percentage growth control) and was calculated as follows: % relative viability = Ae−Ab/Ac−Ab×100% , where Ae is experimental absorbance/fluorescence intensity, Ac is the absorbance/ fluorescence intensity of growth control (only cells with medium), and Ab is the absorbance/fluorescence intensity of a blank (only medium). The IC50 values were obtained by using the sigmoidal dose–response function in GraphPad Prism. The results were expressed as mean ± standard deviation (SD).

[2] = test system: LoVo (colorectal cancer) cells; assay: In vitro cytotoxicity, PrestoBlue assay, LoVo; assay type: cell-based, human; conditions: 48 h, read-out: IC50 ± SD, LoVo
Protocol: as §1
(§4) The PrestoBlue assay was performed according to the method previously reported by Strus et al.. The cells (LoVo and B16F10) were seeded in the indicated medium in a 96-well culture plate (Nest Biotechnology) at a density of 1 × 10^4 cells per well (100 µL) and incubated at 37 °C in a 5% CO2 atmosphere. After 24 h of incubation, 100 µL aliquots of the compounds in medium were added to each well, and the cells were further incubated for 48 h. After 48 h, the old medium was removed, and 100 µL of fresh medium was added. Then, 10 µL of PrestoBlue solution (Thermo Fisher Scientific, Waltham, MA, USA) was added to each well and incubated for 60 min. The fluorescence intensity was measured with excitation at 544 nm and emission at 615 nm using a Fluorstar microplate reader (BMG Labtech, Ortenberg, Germany). The results were expressed as a percentage of the intensity relative to that of control cells (non-treated cells).
as §3

[3] = test system: HaCaT (human keratinocyte) cells; assay: In vitro cytotoxicity, PrestoBlue assay, HaCaT (non-tumorigenic); assay type: cell-based; conditions: 48 h, read-out: IC50 ± SD, HaCaT
[4] = test system: B16F10 (murine melanoma) cells; assay: In vitro cytotoxicity, PrestoBlue assay, B16F10; assay type: cell-based; conditions: read-out: IC50 ± SD, B16F10
Protocol: as §1, §4, §3

[5] = test system: SKOV-3 (ovarian cancer) cells; assay: In vitro cytotoxicity, crystal violet assay, SKOV-3; assay type: cell-based, human
Protocol: as §1, §2, §3

HeLa cells = assay: Cell cycle analysis by flow cytometry (propidium iodide); assay type: cell-based, human; conditions: concentration and time not given
Protocol: To determine the possible mechanisms of compounds 7 and 11 in inhibiting the proliferation of cancer cells, cell cycle analysis was performed with the flow cytometry method, as shown in Figure 3. Compound 7 was previously reported to inhibit proliferation of HaCaT cells via cell cycle arrest in G2/M [18]. As a reference, HeLa cells were treated with the indicated concentrations of compounds 7 and 11 for 24 h and 48 h, and the cell cycle phases distribution of treated cells was determined with the propidium iodide (PI) method, as previously described. The effects of novel podophyllotoxin derivatives on cell cycle phase distribution were evaluated in cells exposed to these compounds for 24 h or 48 h. Three compounds were compared: podophyllotoxin 1, KL-3 derivative 7, and its analog lacking the ester group 11.
For cell cycle analysis, HeLa cells were treated for 24 or 48 h with compounds 7 and 11 at concentrations of 5 µM and 10 µM. After the incubation period, the cells were fixed in a freezing medium (ice-cold 70% ethanol solution in PBS) and stored at −20 °C. The cell suspension was then centrifuged, washed with PBS, and resuspended in PBS containing 200 µg of DNase-free RNase A (Sigma) for 20 min at room temperature. Propidium iodide (Sigma) was added to a final concentration of 5 µg/mL, and the cells were stained for at least 2 h at 4 °C. The analysis was performed using a FACSCalibur flow cytometer (Becton Dickinson, San Diego, CA, USA) and analyzed with CellQuest software, v.3.3.

[6] = test system: MCF-7 (breast cancer) cells; assay: In vitro cytotoxicity, crystal violet assay, MCF-7; assay type: cell-based, human
Protocol: as §1, §2, §3

[7] = test system: cancer cell lines (MCF-7, SKOV-3, B16F10, LOVO, and HeLa) and HaCaT; assay: In vitro cytotoxicity assay, results summarised over the cell line panel; assay type: cell-based; conditions: for Cytotoxicity in words: all tested cell lines
Protocol: The cytotoxicity properties of semi-synthesized compounds 7–15 was evaluated against five types of cancer cell lines including, human: HeLa (cervix cancer), LoVo (colorectal cancer), MCF-7 (breast cancer), SKOV-3 (ovarian cancer), and murine: B16F10 (malignant melanoma). Thus, various human tumor cell lines representing major types of malignant cancers were included in the study protocol. Non-tumorigenic HaCaT cells were used as a representative model of normal (non-cancerous) cells. The crystal violet assay and PrestoBlue assay were used to evaluate the cytotoxic/cytostatic effect. We also included the cytotoxicity data of podophyllotoxin and etoposide as reference values.
as §1, §2, §4
Data analysis was carried out using GraphPad Prism 5.0.3. Calculations were performed using MS-Excel version 2021. […]

[8] = Homo sapiens; HeLa, crystal violet assay, 48 h; read-out: IC50 ± SD, HeLa
[9] = Homo sapiens, SK-OV-3; SKOV-3, crystal violet assay, 48 h; read-out: IC50 ± SD, SKOV-3
[10] = Homo sapiens, MCF7; MCF-7, crystal violet assay, 48 h; read-out: IC50 ± SD, MCF-7
[11] = Homo sapiens, HeLa, 48 h, HeLa, crystal violet assay, 48 h; read-out: IC50 ± SD, HeLa
[12] = Homo sapiens, SK-OV-3, 48 h, SKOV-3, crystal violet assay, read-out: IC50 ± SD, SKOV-3
[13] = Homo sapiens, MCF7, 48 h, MCF-7, crystal violet assay, read-out: IC50 ± SD, MCF-7
[14] = HeLa, crystal violet assay, 48 h; read-out: IC50 ± SD, HeLa
[15] = SKOV-3, crystal violet assay, 48 h; read-out: IC50 ± SD, SKOV-3
[16] = MCF-7, crystal violet assay, 48 h; read-out: IC50 ± SD, MCF-7

SMILES | IC50 [1, 8] [µM] | Selectivity Index (SI) ([1]; SI = IC50HaCaT/IC50HeLa) | IC50 ([2]; Homo sapiens) [µM] | IC50 ([3]; Homo sapiens) [µM] | IC50 ([4]; Mus musculus, B16-F10, 48 h) [µM] | IC50 [5, 9] [µM] | IC50 [6, 10] [µM] | IC50 [1, 11] [µM] | IC50 [5, 12] [µM] | IC50 [6, 13] [µM] | Cytotoxicity in words [7] | further results
COc1cc([C@@H]2c3cc4c(cc3[C@H](O)[C@H]3COC(=O)[C@H]23)OCO4)cc(OC)c1OC [Compound 1, Podophyllotoxin] | 0.0089 ± 0.0003 | 0.52 | 0.033 ± 0.0077 | 0.0046 ± 0.0006 | 0.092 ± 0.05 | 0.017 ± 0.0028 | 0.0039 ± 0.0005 |  |  |  |  | Cells arrested in the G2/M phase (HeLa cells): approximately 90%
COc1cc([C@@H]2c3cc4c(cc3[C@@H](O[C@@H]3O[C@@H]5CO[C@@H](C)O[C@H]5[C@H](O)[C@H]3O)[C@H]3COC(=O)[C@H]23)OCO4)cc(OC)c1O [Compound 2, etoposide, reference compound] |  | 0.23 | 2.48 ± 0.47 | 1.32 ± 0.16 | 6.68 ± 2.32 |  |  | 5.73 ± 1.48 | 3.15 ± 0.38 | 0.31 ± 0.017 |  | 
COC(=O)C1C(c2nc3ccccc3s2)=Cc2cc3c(cc2C1c1cc(OC)c(OC)c(OC)c1)OCO3 (stereo not drawn) [Compound 7] |  | 1.26 |  |  |  |  |  |  |  |  |  | IC50 [1, 14]: 0.68 ± 0.05 µM; IC50 [2]: 0.83 ± 0.08 µM; IC50 [3]: 0.86 ± 0.05 µM; IC50 ([4]; 48 h): 1.78 ± 0.55 µM; IC50 ([7]; MCF-7, SKOV-3, B16F10, LOVO, HeLa, read-out: IC50, range over all tested cancer cell lines): 0.68 to 2.88 µM; IC50 [5, 15]: 1.1 ± 0.13 µM; Cells arrested in the G2/M phase (HeLa cells): approximately 90%; IC50 [6, 16]: 0.59 ± 0.05 µM
COC(=O)[C@H]1C(c2nc3cc(C(F)(F)F)ccc3s2)=Cc2cc3c(cc2[C@H]1c1cc(OC)c(OC)c(OC)c1)OCO3 [Compound 8] |  |  | > 20 | > 20 | > 20 |  |  | > 20 | > 20 | > 20 | inactive | 
COC(=O)C1C(c2nc3cc(Cl)ccc3s2)=Cc2cc3c(cc2C1c1cc(OC)c(OC)c(OC)c1)OCO3 (stereo not drawn) [Compound 9] | 1.81 ± 0.13 | 7.31 | 11.1 ± 2.55 | 13.2 ± 2.89 | > 20 | 10.4 ± 0.73 | 2.02 ± 0.11 |  |  |  |  | IC50 ([7]; read-out: IC50, range over HeLa and MCF-7): 1.81 to 2.02 µM
COC(=O)C1C(c2nc3ccccc3s2)=Cc2cc3c(cc2C1c1cc(OC)c(OC)c(OC)c1)OCO3 (stereo not drawn) [Compound 10] |  |  |  |  |  |  |  |  |  |  | no cytotoxicity | IC50 [1, 14]: > 20 µM; IC50 [2]: > 20 µM; IC50 [3]: > 20 µM; IC50 ([4]; 48 h): > 20 µM; IC50 [5, 15]: > 20 µM; IC50 [6, 16]: > 20 µM
COC(=O)c1c(-c2nc3ccccc3s2)cc2cc3c(cc2c1-c1cc(OC)c(OC)c(OC)c1)OCO3 [Compound 12] |  |  | > 20 | > 20 | > 20 |  |  | > 20 | > 20 | > 20 | no effect | 
COc1cc([C@@H]2c3cc4c(cc3C=C(c3nc5ccccc5s3)[C@@H]2CO)OCO4)cc(OC)c1OC [Compound 13] | > 20 |  | > 20 | > 20 | > 20 | > 20 | > 20 |  |  |  | no effect | 
COC(=O)[C@H]1C(c2nc3ccccc3s2)=Cc2cc(O)c(O)cc2[C@H]1c1cc(OC)c(O)c(OC)c1 [Compound 14] |  | <1 | 11.7 ± 1.02 | 13.1 ± 1.75 | > 20 |  |  | > 20 | 15.3 ± 1.31 | 11.9 ± 1.75 |  | 
COC(=O)[C@H]1C(c2nc3ccccc3s2)=Cc2cc3c(cc2[C@H]1c1cc(OC)c(O)c(OC)c1)OCO3 [Compound 15] | 2.49 ± 0.25 | 3.05 | 10.9 ± 0.95 | 7.59 ± 0.76 | 3.76 ± 0.49 | 3.73 ± 0.75 | 3.44 ± 0.81 |  |  |  |  | IC50 ([7]; read-out: IC50, range over all the cell lines tested, except for LoVo cells): 2.49 to 3.76 µM
